Experimental data taken from article PMC8151276, “An Integrated Approach toward NanoBRET Tracers for Analysis of GPCR Ligand Engagement” (Molecules, 2021).

What was measured:
Assay type in all cases: binding
[1] = target: T1, CCR5 (Homo sapiens, UniProt P51681); assay: NanoBRET screen HiBiT-CCR5 in HEK293
T1 construct: purchased Promega (in-house HiBiT-GPCR construct library, NanoBRET)
Experimental: (§1) Each tracer candidate was screened across the entire library of HiBiT-GPCR constructs using NanoBRET as the detection modality. As depicted in Figure 4A, the specificity of interactions was evaluated through decrease in BRET due to competitive displacement of a bound tracer by excess parental compound. Each tracer was analyzed for binding to each HiBiT-GPCR fusion in the absence and in the presence of competing parental compound. Briefly, HEK293 cells were transfected with HiBiT-GPCR constructs diluted into promoterless DNA to reduce expression and maximize translocation to the cell surface. Each tracer candidate was then screened at concentrations of 1 μM and 0.1 μM across cells expressing these fusions. Cells were treated for 1.5 h with tracer either alone or in the presence of 20 μM competing parental compound (i.e., control). BRET was measured upon addition of purified LgBiT and subsequent complementation with HiBiT genetically fused to a GPCR. The specificity of interactions was assessed through a decrease in BRET signal due to competitive displacement of the bound tracer. To further gauge the robustness of these interactions, the fold response over the control (i.e., BRETtracer/BRETcontrol) was calculated. We chose a 1.5-fold response, which translates to ≥7-fold signal over noise as the minimal threshold required to score an interaction as positive. […]. Below we highlight the screening results obtained for our exemplary fluorescent tracers based on Clozapine, Amitriptyline and AZD1283.
(§2) HiBiT-GPCR DNA constructs were diluted in 10 mM Tris pH 8 to a final concentration of 0.01 μg/μL, arrayed in 96-well plates and stored at −20 °C. For transfection, HEK293 cells were suspended in Opti-MEM (without phenol red) supplemented with 2% fetal bovine serum (Seradigm) and 100 units/mL penicillin–streptomycin (Gibco) at a final concentration of 220,000 cells/mL and dispensed into white 96-well plates at 90 μL/well. Subsequent transfections and screens were carried using an Agilent Bravo Automated Liquid Handling Platform. First, the 96-well HiBiT DNA arrays were diluted 25-fold in Opti-MEM (without serum or phenol red) to a final concentration of 0.0004 μg/μL and 20 μL of the diluted DNAs were transferred into new 96-well plates. Next, promoterless carrier DNA (1 μg/μL) was diluted 25-fold (0.04 μg/μL) and then dispensed into the diluted arrays at 20 μL/well. Following brief mixing, Viafect transfection reagent (Promega) diluted 16-fold into Opti-MEM was dispensed into the plates at 40 μL/well. After mixing by pipetting, plates were incubated for 10 min on the pipetting station deck. The DNA-transfection reagent complexes were then added to plates containing cells. To facilitate the screen, 10 μL of DNA-transfection reagent complexes were added in duplicates to the top 4 and bottom 4 rows, resulting in two identical 48-well arrays per plate. Plates with transfected cells were incubated for 18–20 h at 37 °C/5% CO2. A screen of each tracer across the entire library using two different concentrations requires duplicate plates of transfected cells. Depending on the number of tracers being screened, transfections can be scaled up using the same ratios. The next day, for each tracer, four 20× screening solutions in tracer dilution buffer (Promega) were prepared: two duplicates at final concentration of 20 μM and two duplicates at a final concentration of 2 μM. A competing unmodified compound was added to one of each duplicate at a final concentration of 400 μM. The four resulting solutions were diluted 4-fold in Opti-MEM without serum or phenol red to generate 5× solutions (5 µM and 0.5 µM tracer +/− 100 μM competing compound). To screen the library, a BioTek MultiFlo FX liquid dispenser was used to dispense 22.5 µL of tracer solution to the top 4 rows and 22.5 µL tracer + competing compound solution to the 4 bottom rows. Plates were briefly mixed on an orbital shaker and incubated for 1.5 h at room temperature. […]

[2] = target: T2, GALR2 (Homo sapiens, UniProt O43603); assay: NanoBRET screen HiBiT-GALR2 in HEK293
T2 construct: purchased Promega (in-house HiBiT-GPCR construct library, NanoBRET)
T2 sequence (O43603 1-387): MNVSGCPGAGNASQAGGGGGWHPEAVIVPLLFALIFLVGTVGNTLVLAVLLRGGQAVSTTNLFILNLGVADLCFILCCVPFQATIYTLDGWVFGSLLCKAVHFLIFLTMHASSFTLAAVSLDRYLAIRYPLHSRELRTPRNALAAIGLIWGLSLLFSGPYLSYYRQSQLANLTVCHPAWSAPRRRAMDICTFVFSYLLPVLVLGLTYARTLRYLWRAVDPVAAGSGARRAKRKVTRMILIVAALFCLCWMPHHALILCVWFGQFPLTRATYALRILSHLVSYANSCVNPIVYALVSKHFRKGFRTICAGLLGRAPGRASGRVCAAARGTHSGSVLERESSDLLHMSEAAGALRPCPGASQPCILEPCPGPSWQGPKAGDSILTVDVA
Experimental: as §1, §2

[3] = target: T3, PTGER2 (Homo sapiens, UniProt P43116); assay: NanoBRET screen HiBiT-PTGER2 in HEK293
T3 construct: purchased Promega (in-house HiBiT-GPCR construct library, NanoBRET)
T3 sequence (P43116 whole entry): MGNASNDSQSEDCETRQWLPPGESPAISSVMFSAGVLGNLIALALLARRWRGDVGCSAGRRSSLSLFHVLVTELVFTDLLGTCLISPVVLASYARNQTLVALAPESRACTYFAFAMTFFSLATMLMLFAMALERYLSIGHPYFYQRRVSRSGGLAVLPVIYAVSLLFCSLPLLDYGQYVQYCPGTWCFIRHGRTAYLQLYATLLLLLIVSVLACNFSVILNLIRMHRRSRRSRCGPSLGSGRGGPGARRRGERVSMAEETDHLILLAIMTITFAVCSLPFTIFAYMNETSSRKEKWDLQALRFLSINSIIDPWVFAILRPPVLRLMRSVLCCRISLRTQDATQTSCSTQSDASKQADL
Experimental: as §1, §2

[4] = target: T4, GRM4 (Homo sapiens, UniProt Q14833); assay: NanoBRET screen HiBiT-GRM4 in HEK293
T4 construct: purchased Promega (in-house HiBiT-GPCR construct library, NanoBRET)
T4 sequence (Q14833 33-912): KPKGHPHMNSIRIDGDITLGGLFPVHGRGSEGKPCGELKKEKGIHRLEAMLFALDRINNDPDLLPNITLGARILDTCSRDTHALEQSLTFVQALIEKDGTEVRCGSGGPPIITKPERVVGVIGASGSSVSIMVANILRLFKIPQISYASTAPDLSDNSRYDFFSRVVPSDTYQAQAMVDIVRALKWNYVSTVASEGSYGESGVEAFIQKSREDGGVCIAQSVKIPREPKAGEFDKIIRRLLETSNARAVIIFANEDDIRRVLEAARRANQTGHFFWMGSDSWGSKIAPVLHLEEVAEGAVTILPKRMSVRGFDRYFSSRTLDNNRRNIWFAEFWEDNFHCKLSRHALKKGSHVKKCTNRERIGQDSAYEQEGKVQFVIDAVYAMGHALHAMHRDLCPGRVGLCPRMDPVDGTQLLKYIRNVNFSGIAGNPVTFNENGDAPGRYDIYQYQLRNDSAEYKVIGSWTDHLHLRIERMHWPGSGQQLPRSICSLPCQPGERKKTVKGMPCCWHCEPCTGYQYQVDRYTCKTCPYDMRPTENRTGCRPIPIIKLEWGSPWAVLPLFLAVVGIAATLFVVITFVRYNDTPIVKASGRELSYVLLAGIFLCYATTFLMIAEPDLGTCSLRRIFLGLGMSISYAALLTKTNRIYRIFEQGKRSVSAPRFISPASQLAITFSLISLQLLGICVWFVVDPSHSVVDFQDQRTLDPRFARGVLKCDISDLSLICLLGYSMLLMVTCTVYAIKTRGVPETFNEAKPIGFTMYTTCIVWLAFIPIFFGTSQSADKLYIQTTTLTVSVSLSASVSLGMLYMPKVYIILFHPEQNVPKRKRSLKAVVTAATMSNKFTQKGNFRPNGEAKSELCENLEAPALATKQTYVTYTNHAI
Experimental: as §1, §2

[5] = tracer at 0.1μM, listed as amitriptyline-b-2-NB590
[6] = tracer at 1μM, listed as amitriptyline-b-2-NB590

T1 sequence (P51681 whole entry): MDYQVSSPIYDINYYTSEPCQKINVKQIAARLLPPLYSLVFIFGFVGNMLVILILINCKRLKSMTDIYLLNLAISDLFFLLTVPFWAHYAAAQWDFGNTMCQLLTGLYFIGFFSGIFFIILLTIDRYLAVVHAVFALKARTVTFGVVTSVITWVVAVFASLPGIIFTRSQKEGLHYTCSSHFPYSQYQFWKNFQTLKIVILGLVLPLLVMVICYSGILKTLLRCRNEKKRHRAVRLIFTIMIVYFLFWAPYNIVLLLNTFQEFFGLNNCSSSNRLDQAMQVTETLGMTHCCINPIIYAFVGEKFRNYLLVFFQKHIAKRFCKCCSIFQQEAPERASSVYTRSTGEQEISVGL

## CCOC(=O)c1cc(C#N)c(N2CCC(C(=O)NS(=O)(=O)Cc3ccccc3/C=C/C(=O)NCCNC(=O)CCc3ccc4n3[B-](F)(F)[N+]3=C(c5ccc[nH]5)C=CC3=C4)CC2)nc1C [AZD1283-1-NB590]
[1]; CCR5, 0.1μM
  NanoBRET Fold Response: 1.02
[1]; CCR5, 1μM
  NanoBRET Fold Response: 1.04
[2]; GALR2, 0.1μM
  NanoBRET Fold Response: 1.09
[2]; GALR2, 1μM
  NanoBRET Fold Response: 1.04
[3]; PTGER2, 0.1μM
  NanoBRET Fold Response: 1.00
[3]; PTGER2, 1μM
  NanoBRET Fold Response: 1.04
[4]; GRM4, 0.1μM
  NanoBRET Fold Response: 1.06
[4]; GRM4, 1μM
  NanoBRET Fold Response: 1.07

## N#CN=C(NCCCOc1cccc(CN2CCCCC2)c1)NCCNC(=O)CCOCCOCCOCCOCCNC(=O)CCc1ccc2n1[B-](F)(F)[N+]1=C(c3ccc[nH]3)C=CC1=C2 [Aminopotentidine-2-NB590]
[1]; CCR5, tracer 0.1μM
  NanoBRET Fold Response: 1.00
[1]; CCR5, tracer 1μM
  NanoBRET Fold Response: 1.11
[2]; GALR2, tracer 0.1μM
  NanoBRET Fold Response: 0.94
[2]; GALR2, tracer 1μM
  NanoBRET Fold Response: 0.99
[3]; PTGER2, tracer 0.1μM
  NanoBRET Fold Response: 0.99
[3]; PTGER2, tracer 1μM
  NanoBRET Fold Response: 1.03
[4]; GRM4, tracer 0.1μM
  NanoBRET Fold Response: 1.02
[4]; GRM4, tracer 1μM
  NanoBRET Fold Response: 1.01

## CN(C)CCC=C1c2ccccc2CCc2ccc(C(=O)NCCNC(=O)CCOCCOCCOCCOCCNC(=O)CCc3ccc4n3[B-](F)(F)[N+]3=C(c5ccc[nH]5)C=CC3=C4)cc21 [Amitriptyline-a-2-NB590]
[1]; tracer at 0.1μM
  NanoBRET Fold Response: 0.99
[1]; tracer at 1μM
  NanoBRET Fold Response: 1.01
[2]; tracer at 0.1μM
  NanoBRET Fold Response: 1.02
[2]; tracer at 1μM
  NanoBRET Fold Response: 0.99

## CN(C)CCC=C1c2ccccc2CCc2ccc(C(=O)NCCNC(=O)CCOCCOCCOCCOCCNC(=O)CCc3ccc4n3[B-](F)(F)[N+]3=C(c5ccc[nH]5)C=CC3=C4)cc21 [Amitriptyline-b-2-NB590]
[1]; [5]
  NanoBRET Fold Response: 1.14
[1]; [6]
  NanoBRET Fold Response: 1.07
[2]; [5]
  NanoBRET Fold Response: 1.10
[2]; [6]
  NanoBRET Fold Response: 1.11
[3]; tracer at 0.1μM
  NanoBRET Fold Response: 1.01
[3]; tracer at 1μM
  NanoBRET Fold Response: 1.01
[4]; GRM4, tracer 0.1μM
  NanoBRET Fold Response: 0.96
[4]; GRM4, tracer 1μM
  NanoBRET Fold Response: 0.95

## CN(CCC=C1c2ccccc2CCc2ccccc21)C(=O)CCOCCOCCOCCOCCNC(=O)CCc1ccc2n1[B-](F)(F)[N+]1=C(c3ccc[nH]3)C=CC1=C2 [Amitriptyline-e-2-NB590]
[1]; tracer at 1μM
  NanoBRET Fold Response: 0.97

## COc1ccc2c(n1)c(CCNC(C)=O)cn2CCNC(=O)CCc1ccc2n1[B-](F)(F)[N+]1=C(c3ccc[nH]3)C=CC1=C2 [Azamelatonin-1-NB590]
[1]; 0.1μM tracer
  NanoBRET Fold Response: 1.29
[1]; 1μM tracer
  NanoBRET Fold Response: 0.63
[2]; 0.1μM tracer
  NanoBRET Fold Response: 0.91
[2]; 1μM tracer
  NanoBRET Fold Response: 1.23
[3]; 0.1μM tracer
  NanoBRET Fold Response: 1.01
[3]; 1μM tracer
  NanoBRET Fold Response: 1.07
[4]; 0.1μM tracer
  NanoBRET Fold Response: 1.09
[4]; 1μM tracer
  NanoBRET Fold Response: 0.78
